Test results taken from ChEMBL document CHEMBL1201862, “PubChem BioAssay data set” (2004).
Activity calls are given as the source filed them.

Experiments:
Cytochrome P450 2C9 = Cytochrome P450 2C9 (Homo sapiens, UniProt P11712)
[1] = microbe, parasite or virus in culture; assay type: functional; conditions: Mycobacterium tuberculosis
Cytochrome P450 2D6 = Cytochrome P450 2D6 (Homo sapiens, UniProt P10635);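 note: CYP2D6 member of a cytochrome P450 panel assay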
[2] = biological target: T1, Sentrin-specific protease 8 (Homo sapiens, UniProt Q96LD8); assay type: functional;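 note: luminescence read-out of SENP8 inhibition, dose-response confirmation following an ultra-high-throughput screen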
T1 sequence (Q96LD8 whole entry): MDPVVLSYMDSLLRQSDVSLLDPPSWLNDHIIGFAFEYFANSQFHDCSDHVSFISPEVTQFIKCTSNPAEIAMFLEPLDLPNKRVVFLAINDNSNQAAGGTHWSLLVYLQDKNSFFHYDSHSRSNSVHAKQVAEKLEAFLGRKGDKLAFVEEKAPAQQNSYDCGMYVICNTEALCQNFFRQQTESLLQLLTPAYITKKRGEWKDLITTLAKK

Caspase-3 = biological target: T2, Caspase-3 (Homo sapiens, UniProt P42574); assay type: functional;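 note: Dose-response selectivity test against caspase-3 for candidate inhibitors of sentrin-specific proteases (SENPs)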
T2 sequence (P42574 whole entry): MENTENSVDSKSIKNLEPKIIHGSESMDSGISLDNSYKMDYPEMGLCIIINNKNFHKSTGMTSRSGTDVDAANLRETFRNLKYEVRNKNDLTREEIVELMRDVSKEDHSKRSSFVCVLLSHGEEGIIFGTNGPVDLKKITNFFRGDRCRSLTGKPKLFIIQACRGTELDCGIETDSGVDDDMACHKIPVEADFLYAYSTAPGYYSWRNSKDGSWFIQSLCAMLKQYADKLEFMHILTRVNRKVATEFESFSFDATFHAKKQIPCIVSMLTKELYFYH

[3] = biological target: T3, Sentrin-specific protease 6 (Homo sapiens, UniProt Q9GZR1); assay type: functional;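 note: Luminescence-based dose-response confirmatory assay of SENP6 inhibition, following up an ultra-high-throughput screen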
T3 sequence (Q9GZR1 whole entry): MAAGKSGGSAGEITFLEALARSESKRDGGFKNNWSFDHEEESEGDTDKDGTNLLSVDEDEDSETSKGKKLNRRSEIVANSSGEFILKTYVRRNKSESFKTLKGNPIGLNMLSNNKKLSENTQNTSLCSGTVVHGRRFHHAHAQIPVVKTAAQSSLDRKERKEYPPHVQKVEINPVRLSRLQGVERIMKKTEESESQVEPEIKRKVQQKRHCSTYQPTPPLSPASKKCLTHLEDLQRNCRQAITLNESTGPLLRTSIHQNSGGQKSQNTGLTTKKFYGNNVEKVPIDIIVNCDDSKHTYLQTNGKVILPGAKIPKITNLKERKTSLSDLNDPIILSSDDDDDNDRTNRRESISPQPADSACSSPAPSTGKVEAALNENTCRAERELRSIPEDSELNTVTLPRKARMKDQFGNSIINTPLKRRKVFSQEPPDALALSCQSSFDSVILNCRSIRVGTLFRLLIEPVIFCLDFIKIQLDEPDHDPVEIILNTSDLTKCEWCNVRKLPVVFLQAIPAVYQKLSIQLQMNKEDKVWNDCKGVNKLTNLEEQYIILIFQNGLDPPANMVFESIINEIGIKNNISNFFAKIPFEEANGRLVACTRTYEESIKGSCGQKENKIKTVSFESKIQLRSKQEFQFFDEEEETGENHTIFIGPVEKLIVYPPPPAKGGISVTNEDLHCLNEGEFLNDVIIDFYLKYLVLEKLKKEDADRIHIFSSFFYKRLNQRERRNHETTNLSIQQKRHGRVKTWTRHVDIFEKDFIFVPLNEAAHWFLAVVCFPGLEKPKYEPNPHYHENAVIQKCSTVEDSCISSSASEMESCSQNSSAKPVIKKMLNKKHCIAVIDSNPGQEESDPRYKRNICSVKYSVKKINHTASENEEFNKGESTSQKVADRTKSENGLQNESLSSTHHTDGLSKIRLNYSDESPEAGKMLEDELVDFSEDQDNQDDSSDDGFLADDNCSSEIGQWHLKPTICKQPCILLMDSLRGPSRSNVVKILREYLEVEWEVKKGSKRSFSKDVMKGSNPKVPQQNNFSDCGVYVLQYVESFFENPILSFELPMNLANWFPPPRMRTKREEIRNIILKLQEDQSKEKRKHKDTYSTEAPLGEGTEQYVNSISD

[4] = biological target: T4, Sentrin-specific protease 7 (Homo sapiens, UniProt Q9BQF6); assay type: functional;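 note: Luminescence-based dose-response confirmation of ultra-high-throughput screening hits, measuring inhibition of SENP7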
T4 sequence (Q9BQF6 whole entry): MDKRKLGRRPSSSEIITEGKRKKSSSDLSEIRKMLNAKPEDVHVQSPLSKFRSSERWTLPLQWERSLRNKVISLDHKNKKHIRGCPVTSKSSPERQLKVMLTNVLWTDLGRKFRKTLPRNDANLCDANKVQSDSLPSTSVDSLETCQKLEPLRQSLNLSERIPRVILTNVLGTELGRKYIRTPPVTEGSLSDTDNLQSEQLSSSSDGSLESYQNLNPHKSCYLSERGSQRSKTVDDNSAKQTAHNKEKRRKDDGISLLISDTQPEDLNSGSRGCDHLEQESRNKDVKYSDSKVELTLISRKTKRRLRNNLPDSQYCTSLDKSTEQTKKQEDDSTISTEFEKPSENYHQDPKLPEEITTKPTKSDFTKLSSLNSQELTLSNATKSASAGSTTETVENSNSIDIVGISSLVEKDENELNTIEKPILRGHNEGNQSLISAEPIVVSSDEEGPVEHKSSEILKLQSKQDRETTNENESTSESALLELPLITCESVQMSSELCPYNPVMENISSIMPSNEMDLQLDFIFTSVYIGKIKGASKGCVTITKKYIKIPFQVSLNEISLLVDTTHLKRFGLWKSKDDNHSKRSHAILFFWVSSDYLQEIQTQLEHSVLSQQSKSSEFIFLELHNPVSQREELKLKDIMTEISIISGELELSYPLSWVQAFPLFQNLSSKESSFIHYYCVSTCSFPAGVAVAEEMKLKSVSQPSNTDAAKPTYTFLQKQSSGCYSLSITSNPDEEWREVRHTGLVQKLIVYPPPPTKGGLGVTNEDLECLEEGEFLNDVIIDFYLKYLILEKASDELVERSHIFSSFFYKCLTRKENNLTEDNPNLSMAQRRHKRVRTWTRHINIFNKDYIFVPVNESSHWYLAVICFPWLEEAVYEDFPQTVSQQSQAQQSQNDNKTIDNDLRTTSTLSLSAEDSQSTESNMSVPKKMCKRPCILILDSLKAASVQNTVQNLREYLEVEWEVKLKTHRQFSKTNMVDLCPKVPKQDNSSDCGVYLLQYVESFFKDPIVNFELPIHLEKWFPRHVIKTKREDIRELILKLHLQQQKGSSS

Streptococcus = assay: Group A Streptococcus viability loss, dose response, counter-screen for streptokinase expression inhibitor project, luminescence, BacTiterGlo (AID 1915); assay type: functional, organism-based;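 note: potency for reduction of bacterial viability or growth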
Streptokinase A = biological target: T5, Streptokinase A (Streptococcus pyogenes serotype M1, UniProt P10520); assay: S. pyogenes streptokinase expression inhibitors, potency, dose response, plasminogen activation absorbance, OD405 (AID 1914); assay type: functional, Streptococcus pyogenes M1 GAS;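 note: secreted streptokinase activity via plasminogen activation per viability signal from cell pellet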
T5 sequence (P10520 whole entry): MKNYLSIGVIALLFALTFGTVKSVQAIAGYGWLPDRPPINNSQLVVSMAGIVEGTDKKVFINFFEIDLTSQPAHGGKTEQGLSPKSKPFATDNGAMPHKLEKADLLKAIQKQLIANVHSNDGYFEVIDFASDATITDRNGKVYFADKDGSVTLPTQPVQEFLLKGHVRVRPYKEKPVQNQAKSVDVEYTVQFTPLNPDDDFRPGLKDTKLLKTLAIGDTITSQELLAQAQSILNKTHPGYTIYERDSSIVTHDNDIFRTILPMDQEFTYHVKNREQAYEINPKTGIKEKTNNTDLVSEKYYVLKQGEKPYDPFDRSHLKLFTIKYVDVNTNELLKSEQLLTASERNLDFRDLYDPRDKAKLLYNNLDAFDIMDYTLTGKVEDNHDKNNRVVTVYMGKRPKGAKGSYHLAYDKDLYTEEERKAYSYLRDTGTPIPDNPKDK

[5] = biological target: T6, Heat shock factor protein 1 (Mus musculus, UniProt P38532); assay: HSF1 potentiators in luciferase reporter cells, confirmation, cell-based, NIH3T3, luminescence, dose retest (AID 435004); assay type: functional;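 note: stress induced by proteasome inhibitor MG132 added 30 min after compound; luciferase reporter driven by HSF1 response element in NIH3T3 cells; actives raise luminescence as potentiators of the MG132 stress response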
T6 sequence (P38532 whole entry): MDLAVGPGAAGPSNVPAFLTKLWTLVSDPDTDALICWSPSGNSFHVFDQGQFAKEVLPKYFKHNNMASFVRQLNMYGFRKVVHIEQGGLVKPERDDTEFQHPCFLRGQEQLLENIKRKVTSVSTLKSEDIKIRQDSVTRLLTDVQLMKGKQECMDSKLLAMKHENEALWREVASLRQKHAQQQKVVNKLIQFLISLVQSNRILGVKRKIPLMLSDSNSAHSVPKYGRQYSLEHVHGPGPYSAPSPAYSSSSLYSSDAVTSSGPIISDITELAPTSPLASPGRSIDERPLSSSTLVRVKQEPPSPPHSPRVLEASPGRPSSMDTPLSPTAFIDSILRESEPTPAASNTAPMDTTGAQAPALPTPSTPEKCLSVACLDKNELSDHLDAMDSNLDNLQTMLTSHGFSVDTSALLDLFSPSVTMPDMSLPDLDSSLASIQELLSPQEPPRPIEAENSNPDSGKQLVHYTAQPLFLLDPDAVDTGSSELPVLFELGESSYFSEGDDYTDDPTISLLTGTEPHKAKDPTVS

[6] = system: Streptococcus sp. 'group A'; assay: growth inhibition of control SK(-) GAS strain, dose response, counter-screen for streptokinase expression inhibitor project, luminescence, kanamycin, BacTiterGlo, confirmation (AID 1900); assay type: functional, organism-based
[7] = biological target: T7, Polyadenylate-binding protein 1 (Homo sapiens, UniProt P11940); assay: PABP1 MLLE–PAM2 binding inhibitor potency, dose response, biochemical, fluorescence polarization, FITC-PAM2 peptide (AID 602259); assay type: functional; conditions: read-out: IC50_Mean
Fatty acid synthase [8] = biological target: T8, Fatty acid synthase (Homo sapiens, UniProt P49327); assay: FAS thioesterase domain inhibitors, dose response, biochemical, kinetic fluorescence intensity (AID 624326); assay type: functional;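 note: rate of fluorescence rise from hydrolysis of a fluorogenic O-methyl fluorescein ester substrate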
[9] = biological target: T7, Polyadenylate-binding protein 1; assay: PABP1 MLLE–PAM2 interaction inhibitors, dose response, miRNA deadenylation inhibitor project, biochemical, fluorescence polarization, Cy5-PAM2 peptide, secondary (AID 602260); assay type: functional; conditions: read-out: IC50_Mean
Fatty acid synthase [10] = biological target: T8, Fatty acid synthase; assay: FAS thioesterase domain inhibitors, dose response, biochemical, endpoint fluorescence intensity, uHTS hits (AID 624327); assay type: functional;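 note: fluorescence from hydrolysis of an O-methyl fluorescein acyl ester substrate by the enzyme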
[11] = Luminescence Cell-Based Dose Retest to Confirm Inhibitors of Cancer Stem Cells. [Related pubchem assays (depositor defined):AID2717, AID2721]; assay type: functional; conditions: Homo sapiens
INS1 = assay: beta cell apoptosis inhibitors, cytokine rescue, dose response, luminescence, retest (AID 449756); assay type: functional, cell-based; conditions: Rattus norvegicus;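 note: cell death triggered by IL-1 beta plus TNF-alpha plus IFN-gamma mixture; protective hits raise ATP signal compared with cytokine alone wells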
[12] = inhibitors of HIV Env-driven cell fusion, dose response, cherry-pick (AID 652057); assay type: functional, cell-based

Chain of Cytochrome P450 2D6 (P10635 whole entry): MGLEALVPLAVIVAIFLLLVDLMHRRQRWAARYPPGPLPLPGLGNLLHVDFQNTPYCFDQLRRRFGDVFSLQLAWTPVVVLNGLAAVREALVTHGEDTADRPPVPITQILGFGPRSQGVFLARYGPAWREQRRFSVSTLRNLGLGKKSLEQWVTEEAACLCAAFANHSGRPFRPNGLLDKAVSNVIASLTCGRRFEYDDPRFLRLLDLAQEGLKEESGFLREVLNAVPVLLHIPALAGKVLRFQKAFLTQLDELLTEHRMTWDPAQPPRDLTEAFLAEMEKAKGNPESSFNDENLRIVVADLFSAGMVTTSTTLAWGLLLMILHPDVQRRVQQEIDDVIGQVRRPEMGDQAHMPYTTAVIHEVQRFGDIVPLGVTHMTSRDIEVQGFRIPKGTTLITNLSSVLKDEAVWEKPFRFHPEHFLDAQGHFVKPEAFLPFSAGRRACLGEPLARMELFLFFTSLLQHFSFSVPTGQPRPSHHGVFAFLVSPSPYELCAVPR
T8 sequence (P49327 whole entry, the tested form may be a part): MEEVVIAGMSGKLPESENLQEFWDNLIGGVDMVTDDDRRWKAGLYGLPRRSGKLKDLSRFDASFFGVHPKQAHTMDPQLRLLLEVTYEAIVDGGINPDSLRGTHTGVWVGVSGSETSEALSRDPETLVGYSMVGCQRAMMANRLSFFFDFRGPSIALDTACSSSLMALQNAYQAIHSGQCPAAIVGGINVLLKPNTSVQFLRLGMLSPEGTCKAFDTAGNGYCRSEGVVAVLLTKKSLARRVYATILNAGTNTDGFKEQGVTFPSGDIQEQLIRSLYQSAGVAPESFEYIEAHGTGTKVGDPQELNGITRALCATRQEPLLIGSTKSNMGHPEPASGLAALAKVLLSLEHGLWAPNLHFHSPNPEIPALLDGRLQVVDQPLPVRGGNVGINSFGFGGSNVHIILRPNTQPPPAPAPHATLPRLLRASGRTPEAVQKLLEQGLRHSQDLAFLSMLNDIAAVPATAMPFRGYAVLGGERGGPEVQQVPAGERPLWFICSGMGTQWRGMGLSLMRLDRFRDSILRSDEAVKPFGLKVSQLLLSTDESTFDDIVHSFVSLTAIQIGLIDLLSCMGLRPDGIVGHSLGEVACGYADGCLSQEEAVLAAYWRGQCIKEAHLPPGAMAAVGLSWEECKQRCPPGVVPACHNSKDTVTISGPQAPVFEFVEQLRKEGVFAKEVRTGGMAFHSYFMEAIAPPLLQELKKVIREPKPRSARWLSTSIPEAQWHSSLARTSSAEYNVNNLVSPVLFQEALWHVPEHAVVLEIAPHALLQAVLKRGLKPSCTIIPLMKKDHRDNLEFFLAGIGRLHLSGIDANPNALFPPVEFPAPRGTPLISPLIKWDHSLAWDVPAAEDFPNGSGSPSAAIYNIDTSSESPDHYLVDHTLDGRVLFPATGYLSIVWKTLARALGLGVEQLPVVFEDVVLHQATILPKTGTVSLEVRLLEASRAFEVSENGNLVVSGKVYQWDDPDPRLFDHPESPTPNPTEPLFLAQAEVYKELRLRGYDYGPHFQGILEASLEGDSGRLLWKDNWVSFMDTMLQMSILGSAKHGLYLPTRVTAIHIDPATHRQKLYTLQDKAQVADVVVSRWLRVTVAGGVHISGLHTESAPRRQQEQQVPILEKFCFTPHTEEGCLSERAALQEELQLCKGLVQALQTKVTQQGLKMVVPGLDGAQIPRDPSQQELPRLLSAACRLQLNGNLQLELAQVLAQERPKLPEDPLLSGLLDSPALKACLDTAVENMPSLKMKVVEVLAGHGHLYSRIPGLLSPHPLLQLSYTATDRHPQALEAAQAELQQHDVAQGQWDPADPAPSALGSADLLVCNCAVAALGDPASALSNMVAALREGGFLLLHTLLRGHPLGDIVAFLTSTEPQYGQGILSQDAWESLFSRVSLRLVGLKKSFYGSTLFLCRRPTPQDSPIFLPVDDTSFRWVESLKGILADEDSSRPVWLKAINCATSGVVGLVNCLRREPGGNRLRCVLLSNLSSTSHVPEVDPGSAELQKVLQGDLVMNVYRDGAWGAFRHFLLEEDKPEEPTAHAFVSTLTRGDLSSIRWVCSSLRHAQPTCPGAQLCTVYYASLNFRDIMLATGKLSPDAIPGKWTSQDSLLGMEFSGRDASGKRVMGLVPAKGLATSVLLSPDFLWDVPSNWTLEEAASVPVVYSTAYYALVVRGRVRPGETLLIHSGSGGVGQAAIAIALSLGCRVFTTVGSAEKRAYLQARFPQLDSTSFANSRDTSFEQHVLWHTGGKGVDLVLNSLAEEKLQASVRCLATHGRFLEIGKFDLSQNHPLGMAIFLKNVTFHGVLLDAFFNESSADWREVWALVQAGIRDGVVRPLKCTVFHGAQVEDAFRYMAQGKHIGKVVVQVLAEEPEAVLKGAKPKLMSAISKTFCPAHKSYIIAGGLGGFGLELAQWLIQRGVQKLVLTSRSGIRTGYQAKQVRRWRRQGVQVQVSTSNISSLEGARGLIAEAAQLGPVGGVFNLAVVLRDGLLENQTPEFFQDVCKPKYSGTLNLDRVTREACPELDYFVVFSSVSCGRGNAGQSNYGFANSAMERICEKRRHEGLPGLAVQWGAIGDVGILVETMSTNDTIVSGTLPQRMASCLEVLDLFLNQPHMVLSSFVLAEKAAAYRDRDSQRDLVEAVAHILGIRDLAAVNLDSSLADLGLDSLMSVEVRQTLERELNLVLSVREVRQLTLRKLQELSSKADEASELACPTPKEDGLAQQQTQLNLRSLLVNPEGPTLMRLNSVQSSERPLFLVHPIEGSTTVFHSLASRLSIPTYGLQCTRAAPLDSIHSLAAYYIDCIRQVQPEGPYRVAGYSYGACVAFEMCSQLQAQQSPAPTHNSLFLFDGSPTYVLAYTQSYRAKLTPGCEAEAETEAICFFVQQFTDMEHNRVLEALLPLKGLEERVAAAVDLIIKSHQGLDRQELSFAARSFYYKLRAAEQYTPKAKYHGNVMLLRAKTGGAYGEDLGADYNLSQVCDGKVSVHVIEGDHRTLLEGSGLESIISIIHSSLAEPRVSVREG
T7 sequence (P11940 whole entry, the tested form may be a part): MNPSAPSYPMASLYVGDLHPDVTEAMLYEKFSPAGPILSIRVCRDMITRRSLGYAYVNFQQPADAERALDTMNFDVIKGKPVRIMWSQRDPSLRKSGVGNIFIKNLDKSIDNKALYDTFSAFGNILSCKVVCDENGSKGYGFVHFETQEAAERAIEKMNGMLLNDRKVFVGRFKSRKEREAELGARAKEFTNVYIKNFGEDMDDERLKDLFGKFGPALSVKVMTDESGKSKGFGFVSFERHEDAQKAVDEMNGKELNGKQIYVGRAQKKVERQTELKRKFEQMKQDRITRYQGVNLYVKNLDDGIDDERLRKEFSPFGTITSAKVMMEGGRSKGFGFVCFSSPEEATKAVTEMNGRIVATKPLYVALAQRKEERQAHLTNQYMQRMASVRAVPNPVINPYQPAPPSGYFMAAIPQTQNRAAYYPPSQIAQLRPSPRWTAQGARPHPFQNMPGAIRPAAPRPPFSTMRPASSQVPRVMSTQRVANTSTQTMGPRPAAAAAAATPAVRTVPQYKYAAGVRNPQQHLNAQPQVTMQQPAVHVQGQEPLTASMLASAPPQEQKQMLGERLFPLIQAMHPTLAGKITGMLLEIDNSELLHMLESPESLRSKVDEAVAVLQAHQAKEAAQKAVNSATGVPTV
Chain of Cytochrome P450 2C9 (P11712 whole entry): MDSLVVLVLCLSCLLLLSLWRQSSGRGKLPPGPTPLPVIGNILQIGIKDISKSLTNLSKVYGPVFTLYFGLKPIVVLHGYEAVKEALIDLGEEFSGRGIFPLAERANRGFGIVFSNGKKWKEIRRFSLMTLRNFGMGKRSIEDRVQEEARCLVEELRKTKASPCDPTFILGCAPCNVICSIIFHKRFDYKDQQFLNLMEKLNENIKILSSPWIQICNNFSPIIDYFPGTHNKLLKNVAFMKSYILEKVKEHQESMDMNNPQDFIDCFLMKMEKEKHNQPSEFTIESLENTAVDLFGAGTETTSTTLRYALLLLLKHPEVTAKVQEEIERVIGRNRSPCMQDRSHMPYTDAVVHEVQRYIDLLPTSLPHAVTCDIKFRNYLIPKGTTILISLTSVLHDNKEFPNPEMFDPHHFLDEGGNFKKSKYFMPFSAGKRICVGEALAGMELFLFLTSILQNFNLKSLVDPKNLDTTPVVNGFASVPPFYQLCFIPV

| Compound | IC50 [2] | IC50 (Caspase-3) | IC50 [3] | IC50 [4] | other results |
| --- | --- | --- | --- | --- | --- |
| O=S1(=O)N(CCN2CC=C(c3c[nH]c4cc(F)ccc34)CC2)c2cccc3c2N1CCC3 | – | – | – | – | AC50 (Cytochrome P450 2C9): 25.1 µM (inconclusive); CC50 [1]: > 40 µM (active) |
| O=C(c1ccco1)N1CCC2(CC1)CN(Cc1ccncc1)C2 | – | – | – | – | AC50 (Cytochrome P450 2D6): 12.6 µM (inconclusive) |
| COc1cccc([C@@H]2Oc3ccc(OC)cc3C(=O)[C@H]2O)c1 | – | – | – | – | AC50 (Cytochrome P450 2D6): 3.16 µM (inconclusive) |
| CN(CC(=O)Nc1ccc(Cl)cc1)C(=O)CNC(=O)c1ccc2ccccc2c1 | > 100 µM (inactive) | 26.4 µM (active) | > 100 µM (inactive) | 11.1 µM (active) | – |
| Clc1ccccc1-c1nccc(NCc2ccccc2)n1 | – | – | – | – | AC50 (Cytochrome P450 2D6): 39.8 µM (inconclusive) |
| O=c1c2c3c(sc2nc(N2CCNCC2)n1-c1cccc(Cl)c1)CCCCC3 | – | – | – | – | CC50 [1]: 13.6 µM (active) |
| O=C1c2cccc3c([N+](=O)[O-])ccc(c23)C(=O)N1O | – | – | – | – | EC50 (Streptococcus): 15.8 µM (active); EC50 (Streptokinase A): > 150 µM (not active); CC50 [1]: 17.8 µM (active); EC50 [5]: 244 µM (active); EC50 [6]: 0.999 µM (active) |
| O=[N+]([O-])c1ccc(CSc2ccc(S(=O)(=O)N3CCOCC3)cn2)cc1 | – | – | – | – | IC50 [7]: > 66 µM (inactive); IC50 (Fatty acid synthase [8]): 4.09 µM (active); IC50 [9]: > 66 µM (inactive); IC50 (Fatty acid synthase [10]): 13.4 µM (active) |
| CCC(=O)Nc1ccc(N2CCN(CC)CC2)c(Cl)c1 | – | – | – | – | AC50 (Cytochrome P450 2D6): 0.0447 µM (inconclusive) |
| Cc1nc2ccc(NC(=O)c3cc(Cl)ccn3)cc2s1 | 86.4 µM (active) | 3.79 µM (active) | 12.9 µM (active) | 3.62 µM (active) | – |
| O=C(Nc1ccc(N2CCN(C(=O)c3ccco3)CC2)cc1)C(c1ccccc1)c1ccccc1 | – | – | – | – | CC50 [1]: > 40 µM (active) |
| O=C(COC(=O)c1ccc([N+](=O)[O-])s1)NC(=O)NCc1ccccc1 | 4.28 µM (active) | 13.7 µM (active) | 4.59 µM (active) | 8.47 µM (active) | – |
| Fc1ccccc1SCc1nnc(-c2ccccc2Br)o1 | 14.7 µM (active) | 17.1 µM (active) | 12.1 µM (active) | 6.47 µM (active) | – |
| Clc1nc(-c2ccccn2)nc2scc(-c3ccccc3)c12 | 7.79 µM (active) | 7.37 µM (active) | 6.7 µM (active) | 3.74 µM (active) | – |
| Oc1ccc(/C=C/c2ccnc3ccccc23)cc1 | > 100 µM (inactive) | 34.5 µM (active) | > 100 µM (inactive) | 9.49 µM (active) | – |
| CCCC[C@@H](CN[C@H](C)CNC)NCC1CCC(C(C)(C)C)CC1 (stereo not given in full) | – | – | – | – | AC50 [11]: 6.55 µM (active); AC50 (INS1): 6.4 µM (active); CC50 [1]: 12.7 µM (active) |
| C[C@H]1CN([C@@H](C)CO)C(=O)c2cccc(NS(=O)(=O)c3ccc(Cl)cc3)c2O[C@@H]1CN(C)Cc1ccc(C(F)(F)F)cc1 | – | – | – | – | AC50 [12]: 29 µM (active) |
| COc1ccc2c3c(n(C)c2c1)[C@@H](CO)N(C(=O)Nc1ccc(F)cc1)CC31CCN(Cc2cccc(F)c2)CC1 | – | – | – | – | AC50 [12]: < 0.26 µM (active) |
| COc1ccccc1N1CCN(/N=C/c2ccc([N+](=O)[O-])cc2)CC1 | > 100 µM (inactive) | 2.68 µM (active) | 3.64 µM (active) | 2.17 µM (active) | – |
